Measurements: US7981903B2, “2-[2-{phenylamino}-1H-pyrrolo[2,3-D]pyrimidin-4-yl)amino] benzamide derivatives as IGF-1R inhibitors for the treatment of cancer” (GlaxoSmithKline LLC, priority 2007, dated 2011)

Assays:
Assay type in all cases: biochemical
human IR (hIR) = biological target: T1, human IR (hIR) (Homo sapiens, UniProt P06213); experiment: TR-FRET kinase assay of purified hIR; conditions: activated hIR 0.5 nM, 10 μM ATP, values given as pIC50 category
T1 construct: containing amino acid residues 979-1382 of human IR; made in house; host or cells: Sf9 cells (baculovirus), same process as hIGF1R
T1 sequence (P06213 979-1382): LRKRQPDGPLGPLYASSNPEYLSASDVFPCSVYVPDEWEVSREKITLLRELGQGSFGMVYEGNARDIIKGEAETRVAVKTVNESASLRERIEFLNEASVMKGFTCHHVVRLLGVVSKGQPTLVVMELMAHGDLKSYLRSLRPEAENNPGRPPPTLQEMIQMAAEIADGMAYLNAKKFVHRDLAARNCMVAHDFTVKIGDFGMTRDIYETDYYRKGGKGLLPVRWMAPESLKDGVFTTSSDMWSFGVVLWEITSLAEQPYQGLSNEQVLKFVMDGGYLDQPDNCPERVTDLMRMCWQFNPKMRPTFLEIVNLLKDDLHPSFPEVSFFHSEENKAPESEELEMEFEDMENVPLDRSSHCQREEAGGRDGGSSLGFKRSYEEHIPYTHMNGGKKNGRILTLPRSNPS

ALK = ALK (Homo sapiens, UniProt Q9UM73); experiment: ALK enzyme assay (HTRF); conditions: 0.25 nM ALK, 15.0 μM ATP, values given as pIC50 category
Chain of ALK (Q9UM73 19-1620): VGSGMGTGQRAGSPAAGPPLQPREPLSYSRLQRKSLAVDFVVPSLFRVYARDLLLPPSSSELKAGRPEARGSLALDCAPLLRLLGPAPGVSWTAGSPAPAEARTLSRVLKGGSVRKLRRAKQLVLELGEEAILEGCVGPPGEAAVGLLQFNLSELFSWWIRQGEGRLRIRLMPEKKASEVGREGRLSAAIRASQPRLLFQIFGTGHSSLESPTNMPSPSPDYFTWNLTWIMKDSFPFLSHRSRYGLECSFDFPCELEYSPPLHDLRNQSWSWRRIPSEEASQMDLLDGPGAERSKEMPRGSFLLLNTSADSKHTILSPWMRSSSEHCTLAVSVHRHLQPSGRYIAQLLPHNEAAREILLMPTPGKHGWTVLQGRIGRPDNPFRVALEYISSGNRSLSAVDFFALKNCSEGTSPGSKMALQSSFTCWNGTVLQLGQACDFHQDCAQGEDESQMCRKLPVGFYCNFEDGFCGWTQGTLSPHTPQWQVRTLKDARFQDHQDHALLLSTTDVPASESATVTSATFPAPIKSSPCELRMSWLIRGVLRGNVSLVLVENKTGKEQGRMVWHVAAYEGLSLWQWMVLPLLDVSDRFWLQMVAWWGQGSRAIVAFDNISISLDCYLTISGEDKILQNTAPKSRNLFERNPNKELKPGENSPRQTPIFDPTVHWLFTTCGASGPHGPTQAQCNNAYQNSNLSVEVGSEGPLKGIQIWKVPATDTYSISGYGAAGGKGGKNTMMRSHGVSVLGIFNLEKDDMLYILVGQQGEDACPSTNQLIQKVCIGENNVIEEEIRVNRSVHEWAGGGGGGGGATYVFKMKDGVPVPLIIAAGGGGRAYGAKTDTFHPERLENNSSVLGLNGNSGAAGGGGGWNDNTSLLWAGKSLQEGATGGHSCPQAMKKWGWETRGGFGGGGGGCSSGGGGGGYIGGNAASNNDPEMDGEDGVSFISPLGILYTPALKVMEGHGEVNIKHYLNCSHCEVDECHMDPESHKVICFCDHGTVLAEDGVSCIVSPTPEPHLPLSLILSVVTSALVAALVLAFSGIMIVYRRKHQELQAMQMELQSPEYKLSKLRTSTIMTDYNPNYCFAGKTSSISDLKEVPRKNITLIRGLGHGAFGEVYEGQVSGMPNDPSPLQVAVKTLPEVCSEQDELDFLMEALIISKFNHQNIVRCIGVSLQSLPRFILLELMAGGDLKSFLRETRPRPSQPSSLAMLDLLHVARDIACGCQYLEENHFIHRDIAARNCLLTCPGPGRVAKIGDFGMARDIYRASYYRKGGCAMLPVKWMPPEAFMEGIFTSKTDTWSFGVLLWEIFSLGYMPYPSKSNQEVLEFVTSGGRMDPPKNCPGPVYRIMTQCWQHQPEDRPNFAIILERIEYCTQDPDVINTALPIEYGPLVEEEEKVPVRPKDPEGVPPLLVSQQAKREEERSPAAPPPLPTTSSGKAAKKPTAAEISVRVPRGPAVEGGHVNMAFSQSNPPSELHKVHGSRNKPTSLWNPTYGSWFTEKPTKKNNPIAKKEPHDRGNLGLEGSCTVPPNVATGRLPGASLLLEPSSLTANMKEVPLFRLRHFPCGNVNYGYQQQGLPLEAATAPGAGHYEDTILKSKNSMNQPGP
Procedure, shortened: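 Final compound range 0.00017 to 10 μM (twelve 1:3 dilutions). Kinase reaction with ATP and biotinylated synthetic peptide runs 120 min at 20° C, stopped with EDTA; phosphotyrosine detected by HTRF after 60 min. Inhibition referenced to DMSO (1%) and EDTA (0.1 M) controls, curve-fitted.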

human IGF1R (hIGF1R) = biological target: T2, human IGF1R (hIGF1R) (Homo sapiens, UniProt P08069); experiment: TR-FRET kinase assay of purified hIGF1R; conditions: activated hIGF1R 0.5 nM, 10 μM ATP, values given as pIC50 category, read-out: IGF-1R pIC50 (converted)
T2 construct: containing amino acid residues 957-1367 of human IGF1R; made in house; host or cells: Sf9 cells (baculovirus)
T2 sequence (P08069 957-1367): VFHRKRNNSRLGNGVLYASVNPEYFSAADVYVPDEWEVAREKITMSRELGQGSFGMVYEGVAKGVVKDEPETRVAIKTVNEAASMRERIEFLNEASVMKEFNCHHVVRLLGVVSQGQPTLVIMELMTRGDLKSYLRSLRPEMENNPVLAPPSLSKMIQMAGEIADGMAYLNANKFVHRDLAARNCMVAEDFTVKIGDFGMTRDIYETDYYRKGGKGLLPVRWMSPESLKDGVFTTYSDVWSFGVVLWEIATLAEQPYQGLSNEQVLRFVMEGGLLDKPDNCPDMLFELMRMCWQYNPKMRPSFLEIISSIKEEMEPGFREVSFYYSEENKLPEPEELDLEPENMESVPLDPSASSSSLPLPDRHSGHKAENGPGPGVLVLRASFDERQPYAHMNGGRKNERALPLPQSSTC

IC50 (human IR (hIR)) [nM]	IC50 (ALK) [nM]	IC50 (human IGF1R (hIGF1R)) [nM]	SMILES
1.26 to 3.98	1.26 to 3.98	5.01 to 200	COc1cc2c(cc1Nc1nc(Nc3cccc(F)c3C(N)=O)c3cc[nH]c3n1)CN(CCCN(C)C)CC2 [Example 232, 2-[(2-{[2-[3-(dimethylamino)propyl]-6-(methyloxy)-1,2,3,4-tetrahydro-7-isoquinolinyl]amino}-1H-pyrrolo[2,3-d]pyrimidin-4-yl)amino]-6-fluorobenzamide]
1.26 to 3.98	1.26 to 3.98	5.01 to 200	CNC(=O)c1c(F)cccc1Nc1nc(Nc2cc3c(cc2OC)CCN(C(C)C)C3)nc2[nH]ccc12 [Example 235, 2-fluoro-N-methyl-6-[(2-{[2-(1-methylethyl)-6-(methyloxy)-1,2,3,4-tetrahydro-7-isoquinolinyl]amino}-1H-pyrrolo[2,3-d]pyrimidin-4-yl)amino]benzamide]
1.26 to 3.98	1.26 to 3.98	5.01 to 200	CCC(C)N1CCc2cc(OC)c(Nc3nc(Nc4cccc(F)c4C(=O)NC)c4cc[nH]c4n3)cc2C1 (stereo not drawn) [Example 238, 2-fluoro-N-methyl-6-[(2-{[6-(methyloxy)-2-(1-methylpropyl)-1,2,3,4-tetrahydro-7-isoquinolinyl]amino}-1H-pyrrolo[2,3-d]pyrimidin-4-yl)amino]benzamide]
5.01 to 158	5.01 to 200	5.01 to 200	CNC(=O)c1c(F)cccc1Nc1nc(Nc2cc(N(C)C(=O)CN(C)C)ccc2OC)nc2[nH]ccc12 [Example 242, 2-[(2-{[5-[(N,N-dimethylglycyl)(methyl)amino]-2-(methyloxy)phenyl]amino}-1H-pyrrolo[2,3-d]pyrimidin-4-yl)amino]-6-fluoro-N-methylbenzamide]
0.251 to 1	0.251 to 1	0.251 to 1	COc1ccc(NC(=O)CN(C)C)cc1Nc1nc(Nc2cccc(F)c2C(N)=O)c2cc[nH]c2n1 [Example 244, 2-[(2-{[5-[(N,N-dimethylglycyl)amino]-2-(methyloxy)phenyl]amino}-1H-pyrrolo[2,3-d]pyrimidin-4-yl)amino]-6-fluorobenzamide]
0.251 to 1	0.251 to 1	0.251 to 1	CNC(=O)c1c(F)cccc1Nc1nc(Nc2cc3c(cc2OC)CCN3C(=O)CN(C)C)nc2[nH]cc(C)c12 [Example 258, 2-[(2-{[1-(N,N-dimethylglycyl)-5-(methyloxy)-2,3-dihydro-1H-indol-6-yl]amino}-5-methyl-1H-pyrrolo[2,3-d]pyrimidin-4-yl)amino]-6-fluoro-N-methylbenzamide]
5.01 to 158	5.01 to 200	5.01 to 200	COc1cc2c(cc1Nc1nc(Nc3cccc(F)c3C(N)=O)c3cc(C)[nH]c3n1)N(C(=O)CN(C)C)CC2 [Example 262, 2-[(2-{[1-(N,N-dimethylglycyl)-5-(methyloxy)-2,3-dihydro-1H-indol-6-yl]amino}-6-methyl-1H-pyrrolo[2,3-d]pyrimidin-4-yl)amino]-6-fluorobenzamide]
